Experimental data published in patent publication US20240245660A1, “METHODS OF TREATING GASTROINTESTINAL STROMAL TUMORS” (Deciphera Pharmaceuticals, LLC, priority 2022, published 2024).

Tests used:
[1] = tested on: GISTs with KIT exon 11 primary mutations; details: cited from earlier work
[2] = tested on: advanced gastrointestinal stromal tumor (GIST); assay: Multicenter, global, randomized, open-label, phase 3 study of ripretinib versus sunitinib with baseline ctDNA analysis (Examples 1 and 5); assay type: in vivo, human; details: for forest plot of PFS by KIT exon 11 mutational subgroups from baseline ctDNA: FIG. 10; for forest plot of OS by KIT exon 11 mutational subgroups from baseline ctDNA / forest plot of OS by KIT mutational status from baseline ctDNA: Interim Analysis 2; for forest plot of OS by KIT exon 11 mutational subgroups from baseline ctDNA: FIG. 14; for forest plot of ORR by KIT exon 11 mutational subgroups from baseline ctDNA: FIG. 12; for forest plot of OS by KIT mutational status from baseline ctDNA: FIG. 13; for median PFS by IRR: KIT mutations at exon 17/18, excluding KIT exons 9, 13, and/or 14, FIG. 4; for forest plot of PFS by KIT mutational status from baseline ctDNA: FIG. 9; for Median Progression-Free Survival (mPFS): patients with mutations in KIT exon 11 and 17 or 18 only (ctDNA; excluding exons 9, 13, 14), by IRR, ripretinib 150 mg QD or sunitinib 50 mg QD; for forest plot of ORR by KIT mutational status from baseline ctDNA: FIG. 11; for OS HR, ripretinib versus sunitinib (Cox model) / PFS HR, ripretinib versus sunitinib (Cox model): sex, and race
Procedure: This study is a multicenter, global, randomized, open-label, phase 3 study which enrolled adult patients with advanced gastrointestinal stromal tumor (GIST) who progressed on or had intolerance to imatinib. Randomization was 1:1 to ripretinib 150 mg once daily (QD) or sunitinib 50 mg once daily (QD) (4 weeks on/2 weeks off). Baseline peripheral whole blood was analyzed by Guardant360, a 74-gene circulating tumor DNA (ctDNA) next-generation sequencing (NGS)-based assay.
Of the 453 patients in the overall intent-to-treat population (ITT), baseline ctDNA analysis was performed in 362 patients for whom evaluable samples were available. ctDNA was detected in 280 samples and KIT mutations were detected in 213 patients. Primary mutations in KIT were detected in exon 11 in 157 patients and in exon 9 in 36 patients. Common resistance mutations in KIT were in exons 17/18 in 89 patients and exons 13/14 in 81 patients. In patients with a KIT exon 11 primary mutation, 52 patients had mutations in exon 17 or 18 only, 41 had mutations in exon 13 or 14 only, and 22 patients had mutations in both exon 13 or 14 and exon 17 or 18. […] Efficacy in patients with detectable ctDNA in KIT exon 11 and the ITT populations was consistent with the primary analysis based on tumor data used for randomization. The subgroup safety profiles were consistent with the primary analysis.
Cox proportional hazards analyses of PFS and OS were conducted to examine the interaction of treatment arm and mutational subgroup with or without adjustment for baseline characteristics in the study of Example 1.
(§1) With respect to PFS, a Cox model with the interaction effect was used and the Bonferroni adjustment was applied. […] The treatment effect was nominally significant in the KIT exon 11+13/14 and KIT exon 11+17/18 populations before and after performing the Bonferroni correction. […] The results were robust when accounting for multiple treatment comparisons across mutational subgroups.
as §1, with “OS,” for “PFS,”, “exon” for “exon 11+13/14 and KIT exon”, “population” for “populations”, “correction, but not in the KIT exon 11+13/14 population.” for “correction.”

[3] = tested on: gastrointestinal stromal tumors (GIST); assay: Bridging study of second-line ripretinib versus sunitinib in GIST patients in China (Example 3); assay type: in vivo, human; details: patients in China with KIT exon 11 and exon 17/18 mutations per tumor tissue ITT population; ripretinib 150 mg once daily or sunitinib 50 mg once daily; FIG. 16
Procedure: Results from a bridging study, with respect to the study of Example 1 above, of second-line administration of 150 mg once daily ripretinib, as compared to administration of 50 mg once daily sunitinib, in gastrointestinal stromal tumors (GIST) patients in China were obtained. In the study, 21 patients were determined to have mutations at KIT exon 11 and exon 17/18 per the tumor tissue ITT population. Progression-free survival (PFS) was determined with independent radiologic review using mRECIST. A Kaplan-Meier plot of PFS is provided as FIG. 16.

[4] = KIT exon 11 and 17 or 18 only (ctDNA), Data cut 1
[5] = KIT exon 11 and 17 or 18 only (ctDNA), Data cut 2
[6] = KIT exon 11 and exon 17/18, excluding exons 9, 13, and/or 14, extended interim analysis (Interim Analysis 2), FIG. 6
[7] = KIT exon 11 and exon 17/18, excluding exons 9, 13, and/or 14, interim analysis (Interim Analysis 1), FIG. 5
[8] = KIT exon 17/18, excluding exons 9, 13, and/or 14, extended interim analysis (Interim Analysis 2), FIG. 8
[9] = KIT exon 17/18, excluding exons 9, 13, and/or 14, interim analysis (Interim Analysis 1), FIG. 7
[10] = with adjustment for age, Any KIT exon 9 (n = 36)
[11] = with adjustment for age, KIT exon 11 + 13/14 + 17/18 only (n = 22)
[12] = with adjustment for age, KIT exon 11 + 13/14 only (n = 41)
[13] = with adjustment for age, KIT exon 11 + 17/18 only (n = 52)
[14] = with adjustment for age, KIT exon 11 only (n = 41)
[15] = with adjustment for age, Other KIT/PDGFRA (n = 29)
[16] = without adjustment for age, Any KIT exon 9 (n = 36)
[17] = without adjustment for age, KIT exon 11 + 13/14 + 17/18 only (n = 22)
[18] = without adjustment for age, KIT exon 11 + 13/14 only (n = 41)
[19] = without adjustment for age, KIT exon 11 + 17/18 only (n = 52)
[20] = without adjustment for age, KIT exon 11 only (n = 41)
[21] = without adjustment for age, Other KIT/PDGFRA (n = 29)

## Cc1ccc(NC(=O)c2ccc(CN3CCN(C)CC3)cc2)cc1Nc1nccc(-c2cccnc2)n1 [imatinib]
[1]; adjuvant setting
  2-year relapse-free survival: ~90%
[1]; metastatic setting
  median event-free survival: under 2 years

## CCn1c(=O)c(-c2cc(NC(=O)Nc3ccccc3)c(F)cc2Br)cc2cnc(NC)cc21 [ripretinib]
[2]; KIT exon 11 and 17 only, exon 11 and 18 only, any exons 11 and 17, any exon 11 and exon 17 or 18
  forest plot of PFS by KIT exon 11 mutational subgroups from baseline ctDNA: favor ripretinib treatment
[2]; [4]
  ORR: 44.4%
  ORR Response Difference (95% CI), ripretinib versus sunitinib: 44.4% (23.0%, 62.7%)
  PFS Hazard Ratio (95% CI), ripretinib versus sunitinib: 0.22 (0.11, 0.44)
[2]; KIT exon 11 and 17 or 18 only (ctDNA), Data cut 1, listed as Ripretinib
  ORR: 44.4%
[2]; [5]
  OS: Not Estimable
  OS Hazard Ratio (95% CI), ripretinib versus sunitinib: 0.34 (0.15, 0.76)
[2]; KIT exon 11 and 17 or KIT exon 11 and 18 mutations
  forest plot of OS by KIT exon 11 mutational subgroups from baseline ctDNA: favors ripretinib treatment
[2]; [6]
  median OS: not estimable
[2]; [7]
  median OS: not estimable
[2]; KIT exon 11 in combination with KIT exon 17 or 18 mutations
  forest plot of ORR by KIT exon 11 mutational subgroups from baseline ctDNA: favors ripretinib treatment
[2]; KIT exon 11 only primary mutation and exon 17 or 18 secondary mutations only
  PFS, ORR and OS versus sunitinib: superior
[2]; [8]
  median OS: not evaluable
[2]; [9]
  median OS: not evaluable
[2]; KIT exon 17 and 18 mutations
  forest plot of OS by KIT mutational status from baseline ctDNA: favors ripretinib treatment
[2]
  median PFS by IRR: 13.8 months
[2]; mutations in KIT exons 17 and 18
  forest plot of PFS by KIT mutational status from baseline ctDNA: favor ripretinib treatment
[2]; Data cut 1
  Median Progression-Free Survival (mPFS): 14.2 months
[2]; populations with KIT exons 11, 17 or 18
  forest plot of ORR by KIT mutational status from baseline ctDNA: favors ripretinib treatment
[2]; [10]
  OS HR, ripretinib versus sunitinib (Cox model): 1.33
  PFS HR, ripretinib versus sunitinib (Cox model): 3.07
[2]; [11]
  OS HR, ripretinib versus sunitinib (Cox model): 2.09
  PFS HR, ripretinib versus sunitinib (Cox model): 0.96
[2]; [12]
  OS HR, ripretinib versus sunitinib (Cox model): 1.91
  PFS HR, ripretinib versus sunitinib (Cox model): 3.27
[2]; [13]
  OS HR, ripretinib versus sunitinib (Cox model): 0.34
  PFS HR, ripretinib versus sunitinib (Cox model): 0.21
[2]; [14]
  OS HR, ripretinib versus sunitinib (Cox model): 1.55
  PFS HR, ripretinib versus sunitinib (Cox model): 2.54
[2]; [15]
  OS HR, ripretinib versus sunitinib (Cox model): 0.63
  PFS HR, ripretinib versus sunitinib (Cox model): 0.97
[2]; [16]
  OS HR, ripretinib versus sunitinib (Cox model): 1.32
  PFS HR, ripretinib versus sunitinib (Cox model): 2.88
[2]; [17]
  OS HR, ripretinib versus sunitinib (Cox model): 2.15
  PFS HR, ripretinib versus sunitinib (Cox model): 0.98
[2]; [18]
  OS HR, ripretinib versus sunitinib (Cox model): 1.88
  PFS HR, ripretinib versus sunitinib (Cox model): 3.41
[2]; [19]
  OS HR, ripretinib versus sunitinib (Cox model): 0.32
  PFS HR, ripretinib versus sunitinib (Cox model): 0.22
[2]; [20]
  OS HR, ripretinib versus sunitinib (Cox model): 1.64
  PFS HR, ripretinib versus sunitinib (Cox model): 2.53
[2]; [21]
  OS HR, ripretinib versus sunitinib (Cox model): 0.78
  PFS HR, ripretinib versus sunitinib (Cox model): 1.02
[3]
  median PFS (independent radiologic review using mRECIST): not reached

## CCN(CC)CCNC(=O)c1c(C)[nH]c(/C=C2\C(=O)Nc3ccc(F)cc32)c1C [sunitinib, reference compound]
[2]; KIT exon 9 mutations
  forest plot of ORR by KIT mutational status from baseline ctDNA: favors sunitinib treatment
[2]; KIT exon 11 and 13 or KIT exon 11 and 14 mutations
  forest plot of OS by KIT exon 11 mutational subgroups from baseline ctDNA: favors sunitinib treatment
[2]; [4]
  ORR: 0%
[2]; KIT exon 11 and 17 or 18 only (ctDNA), Data cut 1, listed as Sunitinib
  ORR: 0%
[2]; [5]
  OS: 17.5 months
[2]; [6]
  median OS: 17.5 months
[2]; [7]
  median OS: 16.9 months
[2]; KIT exon 11 in combination with KIT exon 13 only
  forest plot of ORR by KIT exon 11 mutational subgroups from baseline ctDNA: favors sunitinib treatment
[2]; KIT exon 13 and 14 mutations
  forest plot of OS by KIT mutational status from baseline ctDNA: favors sunitinib treatment
[2]; [8]
  median OS: 17.5 months
[2]; [9]
  median OS: 17.0 months
[2]
  median PFS by IRR: 2.8 months
[2]; exon 11 mutations in combination with exon 13 or exon 14 mutations
  forest plot of PFS by KIT exon 11 mutational subgroups from baseline ctDNA: favor sunitinib
[2]; mutations in KIT exons 9, 13, and 14
  forest plot of PFS by KIT mutational status from baseline ctDNA: favor sunitinib
[2]; Data cut 1
  Median Progression-Free Survival (mPFS): 1.5 months
[3]
  median PFS (independent radiologic review using mRECIST): 6.7 months
